Data from PubChem BioAssay (NCI).
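48-hour exposure; five concentrations; linearly interpolated endpoints. TGI: concentration producing complete growth inhibition.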

Assays:
Assay in all cases: NCI tumour cell line growth inhibition, 48 h
[1] = tested on: HT29 colon
[2] = tested on: SW-620 colon
[3] = tested on: SF-295 CNS
[4] = tested on: T-47D breast
[5] = tested on: COLO 205 colon
[6] = tested on: SNB-19 CNS
[7] = tested on: UO-31 renal
[8] = tested on: A549 NSCLC
[9] = tested on: HCT-15 colon
[10] = tested on: IGROV1 ovarian

For `O=C(O)CC(CC(=O)O)C(=O)O`, the TGI [1] was greater than 100 µM, the TGI [2] was greater than 100 µM and the TGI [3] was greater than 100 µM. It also gave a TGI [4] greater than 100 µM, a TGI [5] greater than 100 µM and a TGI [6] greater than 100 µM. For the same compound, the TGI [7] was greater than 100 µM, the TGI [8] was greater than 100 µM and the TGI [9] was greater than 100 µM. For the same compound, the TGI [10] was greater than 100 µM.

`CCCCS(=O)CCC(N)P(=O)(O)O` (stereo not given) showed a TGI [1] greater than 100 µM, a TGI [2] greater than 100 µM and a TGI [3] greater than 100 µM. The TGI [4] was greater than 100 µM, the TGI [5] was greater than 100 µM and the TGI [6] was greater than 100 µM. The TGI [7] was greater than 100 µM, the TGI [8] was greater than 100 µM and the TGI [9] was greater than 100 µM. The TGI [10] was greater than 100 µM.

With `CC1(c2cccs2)CC(c2cccs2)=C(C#N)C(=C(C#N)C#N)N1` (stereo not given) the TGI [1] was 34.4 µM, the TGI [2] was 43.7 µM and the TGI [3] was 32.6 µM. For the same compound, the TGI [4] was 39.4 µM, the TGI [5] was 39.9 µM and the TGI [6] was 36.6 µM. It also gave a TGI [7] of 34.8 µM, a TGI [8] of 48.6 µM and a TGI [9] of 33.8 µM. For the same compound, the TGI [10] was 33.4 µM.

In the case of `COC(=O)c1cc2c3c(ccc2[nH]1)N(C(=O)c1cc2cc(OC)c(OC)c(OC)c2[nH]1)CC3CCl` (stereo not given), the TGI [1] is reported as greater than 75.8 µM, the TGI [2] is reported as greater than 100 µM and the TGI [3] is reported as greater than 100 µM. It also gave a TGI [4] greater than 100 µM, a TGI [5] greater than 20.9 µM and a TGI [6] greater than 100 µM. For the same compound, the TGI [7] was greater than 100 µM, the TGI [8] was greater than 100 µM and the TGI [9] was greater than 100 µM. The TGI [10] was greater than 100 µM.

Work on `Nc1ncnc2c1ccn2C/C=C\CO` yielded a TGI [1] greater than 100 µM, a TGI [2] greater than 100 µM and a TGI [3] greater than 100 µM. The TGI [4] was greater than 100 µM, the TGI [5] was greater than 100 µM and the TGI [6] was greater than 100 µM. For the same compound, the TGI [7] was greater than 100 µM, the TGI [8] was greater than 100 µM and the TGI [9] was greater than 100 µM. For the same compound, the TGI [10] was greater than 100 µM.

Work on `CCCC[C@@H]1CCN2C[C@@H](O)[C@@H](O)[C@@H]2[C@H]1O` yielded a TGI [1] greater than 100 µM, a TGI [2] greater than 100 µM and a TGI [3] greater than 100 µM. It also gave a TGI [4] greater than 100 µM, a TGI [5] greater than 100 µM and a TGI [6] greater than 100 µM. The TGI [7] was greater than 100 µM, the TGI [8] was greater than 100 µM and the TGI [9] was greater than 100 µM. It also gave a TGI [10] greater than 100 µM.

`CN1CCN(C(=O)CCNC(=O)Cc2ccc(C(=O)c3ccccc3)cc2)CC1` was tested, and the TGI [1] was greater than 100 µM, the TGI [2] was greater than 100 µM and the TGI [3] was greater than 100 µM. The TGI [4] was greater than 100 µM, the TGI [5] was greater than 100 µM and the TGI [6] was greater than 100 µM. It also gave a TGI [7] greater than 100 µM, a TGI [8] greater than 100 µM and a TGI [9] greater than 100 µM. It also gave a TGI [10] greater than 100 µM.

In the case of `OCCCCCCCCCCCOc1ccc(C2OCC3(CO2)COC(c2ccc(OCCCCCCCCCCCO)cc2)OC3)cc1` (stereo not given), the TGI [1] is reported as greater than 50 µM, the TGI [2] is reported as greater than 50 µM and the TGI [3] is reported as greater than 50 µM. The TGI [4] was greater than 50 µM, the TGI [5] was greater than 50 µM and the TGI [6] was greater than 50 µM. It also gave a TGI [7] greater than 50 µM, a TGI [8] greater than 50 µM and a TGI [9] greater than 50 µM. It also gave a TGI [10] greater than 50 µM.

`Oc1cn(-c2ccc(Cl)cc2)nc1-c1nnc(-c2ccccc2)o1` showed a TGI [1] of 27.6 µM, a TGI [2] of 36.4 µM and a TGI [3] of 4.52 µM. It also gave a TGI [4] greater than 92.7 µM, a TGI [5] greater than 49.8 µM and a TGI [6] greater than 68.5 µM. It also gave a TGI [7] of 31.9 µM, a TGI [8] of 31.5 µM and a TGI [9] of 27.2 µM. The TGI [10] was greater than 53.4 µM.

Compound `FC(F)(F)c1ccc(N=C/C=C(/Nc2ccc(C(F)(F)F)cc2)c2ccc(Cl)cc2)cc1` has a TGI [1] of 24.8 µM, a TGI [2] of 32.8 µM and a TGI [3] of 36.1 µM. The TGI [4] was 39.9 µM, the TGI [5] was 32.6 µM and the TGI [6] was 25 µM. For the same compound, the TGI [7] was greater than 100 µM, the TGI [8] was 35.5 µM and the TGI [9] was 25 µM. The TGI [10] was 25.5 µM.
